Laboratory results: patent US8986738B2, “Inhalative and instillative use of semifluorinated alkanes as an active substance carrier in the intrapulmonary area” (NOVALIQ GmbH, priority 2008, dated 2015)

Test: Intratracheal bolus instillation of alpha-tocopherol solution in F6H8
Assay type: in vivo
Details: pigs
Excerpt: In the clinical experiment on pigs some of that solution was intratracheally instilled bolus-wise.

location of the drug after exhaling the SFA: remained in the alveolar region
Compound: Cc1c(C)c2c(c(C)c1O)CC[C@@](C)(CCC[C@H](C)CCC[C@H](C)CCCC(C)C)O2 [alpha-tocopherol]
transfer of the drug into the bloodstream: no transfer of the drug into the bloodstream was detected
